Patent publication US8586588B2, “Aryl pyridazinone derivatives and their use as H3 receptor ligands” (Cephalon, Inc., priority 2006, dated 2013)

Columns and labels:
[1] = target: T1, rat histamine H3 receptor (Rattus norvegicus, UniProt Q9QYN8); experiment: Rat H3 radioligand binding ([3H]-N-alpha-methylhistamine, CHO-A3 cell membranes, SPA); conditions: Table B, binding constant as letter class; read-out: rat H3 Ki
T1 construct: encoding the entire 445-amino-acid rat histamine H3 receptor; expressed in transfected cells
T1 sequence (Q9QYN8 whole entry): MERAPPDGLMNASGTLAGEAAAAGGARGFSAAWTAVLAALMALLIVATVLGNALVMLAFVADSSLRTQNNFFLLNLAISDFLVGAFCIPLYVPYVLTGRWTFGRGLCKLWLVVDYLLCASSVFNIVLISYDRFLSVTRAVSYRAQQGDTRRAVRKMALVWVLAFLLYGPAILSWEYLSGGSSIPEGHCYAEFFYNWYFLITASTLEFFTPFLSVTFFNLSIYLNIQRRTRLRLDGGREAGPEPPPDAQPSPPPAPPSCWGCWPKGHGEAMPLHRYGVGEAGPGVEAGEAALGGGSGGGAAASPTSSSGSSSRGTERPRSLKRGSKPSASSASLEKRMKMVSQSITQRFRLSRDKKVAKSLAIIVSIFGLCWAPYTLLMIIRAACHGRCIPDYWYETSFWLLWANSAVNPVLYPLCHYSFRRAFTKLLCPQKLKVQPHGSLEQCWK
How it was run: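 Membranes from CHO-A3 cells stably expressing rat H3 (10 μg protein) incubated 4 h at room temperature in 50 mM Tris-HCl pH 7.4, 5 mM MgCl2, 0.1% BSA with ~1 nM [3H]-N-alpha-methylhistamine and compound (0.01 nM-30 μM). Bound radioligand read by scintillation proximity; nonspecific binding with 10 μM clobenpropit.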

human H3 receptor = target: T2, human H3 receptor (Homo sapiens, UniProt Q9Y5N1); experiment: Human H3 radioligand binding ([3H]-N-alpha-methylhistamine, CHO cell membranes, SPA); conditions: Table B, binding constant as letter class
T2 construct: expressed in transfected cells
T2 sequence (Q9Y5N1 whole entry): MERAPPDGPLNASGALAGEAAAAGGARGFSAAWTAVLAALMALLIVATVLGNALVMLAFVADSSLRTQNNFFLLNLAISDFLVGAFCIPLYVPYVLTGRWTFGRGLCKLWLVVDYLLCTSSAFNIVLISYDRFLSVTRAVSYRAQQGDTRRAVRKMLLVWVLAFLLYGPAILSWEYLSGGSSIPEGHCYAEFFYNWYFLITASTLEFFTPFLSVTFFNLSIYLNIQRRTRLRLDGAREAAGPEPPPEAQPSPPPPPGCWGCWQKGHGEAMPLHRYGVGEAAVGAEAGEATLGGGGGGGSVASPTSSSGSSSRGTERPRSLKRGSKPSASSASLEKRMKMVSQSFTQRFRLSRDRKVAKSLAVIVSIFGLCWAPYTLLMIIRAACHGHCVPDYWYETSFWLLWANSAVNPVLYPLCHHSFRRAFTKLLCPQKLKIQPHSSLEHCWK
How it was run: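 CHO cell membranes expressing human H3 (10 μg protein/well) incubated 4 h at room temperature, in the dark, with ~1 nM [3H]-N-alpha-methylhistamine, compounds (0.01 nM-30 μM) and SPA beads in 50 mM Tris HCl pH 7.4, 5 mM MgCl2, 0.1% BSA. Non-specific binding defined with 10 μM clobenpropit.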

Row | Ki [1] | Ki (human H3 receptor) | melting point | Compound
1 | 0.1 to 100 nM | 0.1 to 100 nM | 128 to 130 °C | O=c1ccc(-c2ccc(OCCCN3CCCCC3)cc2)nn1CC(F)(F)F [Example 171, 6-[4-(3-Piperidin-1-yl-propoxy)-phenyl]-2-(2,2,2-trifluoro-ethyl)-2H-pyridazin-3-one]
2 | 0.1 to 100 nM | 0.1 to 100 nM | 218 to 220 °C | C[C@@H]1CCCN1CCCOc1ccc(C2=NNC(=O)C3CCC23)cc1 (stereo partly drawn) [Example 173, 5-{4-[3-((R)-2-Methyl-pyrrolidin-1-yl)-propoxy]-phenyl}-3,4-diaza-bicyclo[4.2.0]oct-4-en-2-one]
3 | 0.1 to 100 nM | 0.1 to 100 nM | > 255 °C (dec.) | O=C1NN=C(c2ccc(OC3CCN(C4CCC4)CC3)cc2)C2CCCC12 (stereo not drawn) [Example 174, 4-[4-(1-Cyclobutyl-piperidin-4-yloxy)-phenyl)-2,4a,5,6,7,7a-hexahydro-cyclopenta[d]pyridazin-1-one]
4 | 0.1 to 100 nM | 0.1 to 100 nM | 218 to 219 °C | C[C@@H]1CCCN1CCCOc1ccc(C2=NNC(=O)C3CCCC23)cc1 (stereo partly drawn) [Example 175, 4-{4-[3-((R)-2-Methyl-pyrrolidin-1-yl)-propoxy]-phenyl}-2,4a,5,6,7,7a-hexahydro-cyclopenta[d]pyridazin-1-one]
5 | 0.1 to 100 nM | 0.1 to 100 nM | 210 to 213 °C | O=c1[nH]nc(-c2ccc(OC3CCN(C4CCC4)CC3)cc2)c2c1CCC2 [Example 176, 4-[4-(1-Cyclobutyl-piperidin-4-yloxy)-phenyl]-2,5,6,7-tetrahydro-cyclopenta[d]pyridazin-1-one]
6 | 0.1 to 100 nM | 0.1 to 100 nM | 146 to 149 °C | O=C1CCC(c2ccc(OC3CCN(C4CCC4)CC3)nc2)=NN1C1CCC1 [Example 177, 2-Cyclobutyl-6-[6-(1-cyclobutyl-piperidin-4-yloxy)-pyridin-3-yl]-4,5-dihydro-2H-pyridazin-3-one]
7 | 0.1 to 100 nM | 0.1 to 100 nM | 140 to 142 °C | C[C@@H]1CCCN1CCCOc1ccc(C2=NNC(=O)C(C)(C)C2)cc1 [Example 179, 4,4-Dimethyl-6-{4-[3-((R)-2-methyl-pyrrolidin-1-yl)-propoxy]-phenyl}-4,5-dihydro-2H-pyridazin-3-one]
8 | 0.1 to 100 nM | 0.1 to 100 nM | 132 to 133 °C | C[C@@H]1CCCN1CCCOc1ccc(C2=NNC(=O)CC2)cc1F [Example 180, 6-{3-Fluoro-4-[3-((R)-2-methyl-pyrrolidin-1-yl)-propoxy]-phenyl}-4,5-dihydro-2H-pyridazin-3-one]
9 | 101 to 500 nM | 0.1 to 100 nM | 164 to 166 °C | O=C1CCC(c2ccc(OCCCN3CCCCC3)c(F)c2)=NN1 [Example 181, 6-[3-Fluoro-4-(3-piperidin-1-yl-propoxy)-phenyl]-4,5-dihydro-2H-pyridazin-3-one]
10 | 0.1 to 100 nM | 0.1 to 100 nM | 118 to 121 °C | C[C@@H]1CCCN1CCCOc1ccc(C2=NNC(=O)CC2(C)C)cc1 [Example 182, 5,5-Dimethyl-6-{4-[3-((R)-2-methyl-pyrrolidin-1-yl)-propoxy]-phenyl}-4,5-dihydro-2H-pyridazin-3-one]
11 | 0.1 to 100 nM | 0.1 to 100 nM | 169 to 171 °C | C[C@@H]1CCCN1CCCOc1c(F)cc(-c2ccc(=O)[nH]n2)cc1F [Example 184, 6-{3,5-Difluoro-4-[3-((R)-2-methyl-pyrrolidin-1-yl)-propoxy]-phenyl}-2H-pyridazin-3-one]
12 | 0.1 to 100 nM | 0.1 to 100 nM | 165 to 167 °C | C[C@@H]1CCCN1CCCOc1c(Br)cc(-c2ccc(=O)[nH]n2)cc1Br [Example 185, 6-{3,5-Dibromo-4-[3-((R)-2-methyl-pyrrolidin-1-yl)-propoxy]-phenyl}-2H-pyridazin-3-one]
